Laboratory results published in patent US10954214B2 (Janssen Pharmaceutica NV, priority 2016, dated 2021).

What was measured:
[1] = molecular target: full-length MALT1 protein (Strep-MALT1(1-824)-His) (Homo sapiens (Human), UniProt Q9UDY8); test: MALT1 Biochemical Protease Assay (Ac-LRSR-AMC substrate); settings: 10 nM FL MALT1, 200 μM Ac-LRSR-AMC, 4 h at RT; read-out: MALT1_Biochemical activity (Ac-LRSR-amc) IC50
Method in brief: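 Full-length MALT1 pre-incubated with compounds (30 μM to 0.5 nM, 11 threefold steps) for 50 min at RT. After Ac-LRSR-AMC was added, the reaction ran 4 h at RT and AMC fluorescence was read. IC50 and Hill slope from curve fitting against no-enzyme and no-compound controls.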

[2] = system: IL6 secretion by TMD8 ABC-DLBCL cells; test: Human IL6 Mesoscale assay (TMD-8); type: cell-based; settings: Homo sapiens, TMD8; TMD-8 cells, 24 h
Method in brief: (§1)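 100,000 cells/well treated with compound in 9 twofold steps from 15 μM to 58.6 nM (0.3% DMSO) for 24 h at 37° C; supernatant cytokine measured by MSD electrochemiluminescence sandwich immunoassay. DMSO wells set maximum signal, BTK inhibitor RN486 (30 nM to 131 pM) set maximum inhibition.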

[3] = system: IL10 secretion by TMD8 ABC-DLBCL cells; test: Human IL10 Mesoscale assay (TMD-8); type: cell-based; settings: Homo sapiens, TMD8; TMD-8 cells, 24 h
Method in brief: as §1

OCI-Ly3 cells = test: 4-day proliferation assay, OCI-Ly3; type: cell-based, human; settings: Homo sapiens, 96 h, 4 days incubation, CellTiterGLO, read-out: Anti-proliferation: OCI-LY-3 IC50
Experimental: (§2) To assess anti-proliferative effects, MALT1 inhibitor test compounds were tested in 4-day proliferation assays using three different DLBCL cell lines.
(§3) Cells should be kept between 0.5-2.5 million cells per mL during culturing and cells should be supplemented every 2-3 days with fresh 50 μM beta-mercaptoenthanol. No beta-mercaptoethanol is used during the proliferation assay. OCI-Ly7 cells were propagated in IMDM (ThermoFisher) supplemented with 10% fetal bovine serum (HyClone), 2 mM L-glutamine (Sigma Aldrich) and 50 μg/mL Gentamycin. Cell passage numbers should not exceed 30 (for OCI-Ly3 cells with passage number lower than 10 were used).
(§4) 10,000 TMD8, 10,000 OCI-Ly3 or 2,000 OCI-Ly7 cells were seeded in 100 μL media per well and incubated for 4 days at 37° C. and 5% CO2. Cell plating numbers were chosen based on growth curves to ensure linear cell growth. After 4 days of incubation 50 μL CellTiterGLO reagent (Promega) were added to each well and luminescence was measured on the Envision after 10 min of incubation at room temperature.
(§5) LC=median of the low control values
(§6) An estimate of the slope of the plot in terms of the Hill coefficient was also obtained.

TMD8 cells = test: 4-day proliferation assay, TMD8; type: cell-based; settings: Homo sapiens, 96 h, 4 days incubation, CellTiterGLO, read-out: Anti-proliferation: TMD-8 IC50
Experimental: as §2, §3, §4, §5, §6

full-length MALT1 protein (Strep-MALT1(1-824)-His), sequence (Q9UDY8 whole entry): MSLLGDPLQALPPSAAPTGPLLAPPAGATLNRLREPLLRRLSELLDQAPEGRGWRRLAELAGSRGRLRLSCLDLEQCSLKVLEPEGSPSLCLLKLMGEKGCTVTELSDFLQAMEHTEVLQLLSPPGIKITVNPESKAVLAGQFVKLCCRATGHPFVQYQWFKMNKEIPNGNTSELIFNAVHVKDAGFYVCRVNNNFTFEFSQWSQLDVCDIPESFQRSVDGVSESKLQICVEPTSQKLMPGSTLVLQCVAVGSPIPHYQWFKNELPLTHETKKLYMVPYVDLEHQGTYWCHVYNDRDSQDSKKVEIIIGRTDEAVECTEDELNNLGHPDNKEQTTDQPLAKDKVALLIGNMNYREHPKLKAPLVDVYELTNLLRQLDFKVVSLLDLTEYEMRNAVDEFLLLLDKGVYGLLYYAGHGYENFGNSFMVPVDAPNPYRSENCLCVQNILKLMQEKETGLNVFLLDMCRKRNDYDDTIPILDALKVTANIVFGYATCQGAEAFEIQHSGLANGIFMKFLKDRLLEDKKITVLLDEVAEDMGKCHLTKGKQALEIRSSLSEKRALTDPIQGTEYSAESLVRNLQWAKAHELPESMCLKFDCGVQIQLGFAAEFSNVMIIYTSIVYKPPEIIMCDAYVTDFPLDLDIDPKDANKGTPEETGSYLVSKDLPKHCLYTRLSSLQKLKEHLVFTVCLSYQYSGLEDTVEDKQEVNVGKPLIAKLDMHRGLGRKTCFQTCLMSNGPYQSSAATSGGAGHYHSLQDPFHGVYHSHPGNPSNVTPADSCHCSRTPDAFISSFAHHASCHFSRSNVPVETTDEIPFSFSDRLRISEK

| SMILES | IC50 [1] [nM] | IC50 [2] [nM] | IC50 [3] [nM] | IC50 (OCI-Ly3 cells) [nM] | IC50 (TMD8 cells) [µM] |
| --- | --- | --- | --- | --- | --- |
| Cn1nc(-c2ncc(NC(=O)c3cnn(-c4cccc5c(=O)[nH]ccc45)c3C(F)(F)F)cc2Cl)cc1N [Cpd 183, N-(6-(5-amino-1-methyl-1H-pyrazol-3-yl)-5-chloropyridin-3-yl)-1-(1-oxo-1,2-dihydroisoquinolin-5-yl)-5-(trifluoromethyl)-1H-pyrazole-4-carboxamide] | 35 | 6610 | 2140 | 3570 | > 20 |
| COc1ncc(NC(=O)c2cnn(-c3cccc4ncccc34)c2C(F)(F)F)cc1C#N [Cpd 85, N-(5-cyano-6-methoxypyridin-3-yl)-1-(quinolin-5-yl)-5-(trifluoromethyl)-1H-pyrazole-4-carboxamide] | 132 | 95 | 120 | 1660 | > 20 |
| CN1CCN(C(=O)c2ncc(NC(=O)c3cnn(-c4cncc5ccccc45)c3C(F)(F)F)cc2C#N)CC1 [Cpd 96, N-(5-cyano-6-(4-methylpiperazine-1-carbonyl)pyridin-3-yl)-1-(isoquinolin-4-yl)-5-(trifluoromethyl)-1H-pyrazole-4-carboxamide] | 759 | 1050 | 676 | 7080 | ~15.5 |
| NCCCCNC(=O)c1ncc(NC(=O)c2cnn(-c3cncc4ccccc34)c2C(F)(F)F)cc1Cl [Cpd 72, N-(4-aminobutyl)-3-chloro-5-(1-(isoquinolin-4-yl)-5-(trifluoromethyl)-1H-pyrazole-4-carboxamido)picolinamide] | 407 | 851 | 1380 | 1660 | > 20 |
| [2H]c1ccc2c(-n3ncc(C(=O)Nc4cnc(-n5nccn5)c(C#N)c4)c3C(F)(F)F)cccc2n1 [Cpd 130, N-(5-cyano-6-(2H-1,2,3-triazol-2-yl)pyridin-3-yl)-1-(2-D-quinolin-5-yl)-5-(trifluoromethyl)-1H-pyrazole-4-carboxamide] | 17 | 214 | 166 | 417 | 3.47 |
| Cc1cc(NC(=O)c2cnn(-c3cncc4ccccc34)c2C(F)(F)F)cc(C(F)(F)F)n1 [Cpd 73, 1-(isoquinolin-4-yl)-N-(2-methyl-6-(trifluoromethyl)pyridin-4-yl)-5-(trifluoromethyl)-1H-pyrazole-4-carboxamide] | 724 | 417 | 339 | 1950 | ~11.5 |

More lines, main results first:

| IC50 [1] [nM] | IC50 [2] [nM] | IC50 [3] [nM] | IC50 (OCI-Ly3 cells) [nM] | SMILES | IC50 (TMD8 cells) [µM] |
| --- | --- | --- | --- | --- | --- |
| 107 | 331 | 209 | 1350 | N#Cc1cc(NC(=O)c2cnn(-c3cccc4ncccc34)c2C(F)(F)F)cnc1OC1CC1 [Cpd 88, N-(5-cyano-6-cyclopropoxypyridin-3-yl)-1-(quinolin-5-yl)-5-(trifluoromethyl)-1H-pyrazole-4-carboxamide] | ~12 |
| 32 | 331 | 132 | 337 | O=C(Nc1cnc(-n2nccn2)c(C(F)(F)F)c1)c1cnn(-c2cccc3ncccc23)c1C(F)(F)F [Cpd 146, N-(6-(2H-1,2,3-triazol-2-yl)-5-(trifluoromethyl)pyridin-3-yl)-1-(quinolin-5-yl)-5-(trifluoromethyl)-1H-pyrazole-4-carboxamide] | 1.02 |
| 15 | 21 | 43 | 135 | N#Cc1cc(NC(=O)c2cnn(-c3ccnc4sccc34)c2C(F)(F)F)cnc1-n1nccn1 [Cpd 126, N-(5-cyano-6-(2H-1,2,3-triazol-2-yl)pyridin-3-yl)-1-(thieno[2,3-b]pyridin-4-yl)-5-(trifluoromethyl)-1H-pyrazole-4-carboxamide] | 0.794 |
| 71 | 37 | 148 | 780 | N#Cc1cc(NC(=O)c2cnn(-c3cccc4ncccc34)c2C(F)(F)F)cnc1-n1cncn1 [Cpd 86, N-(5-cyano-6-(1H-1,2,4-triazol-1-yl)pyridin-3-yl)-1-(quinolin-5-yl)-5-(trifluoromethyl)-1H-pyrazole-4-carboxamide] | ~11.2 |
